Key:
Experiment in all cases: relative viability (nuclei count vs DMSO), 5 days (fraction); higher = more cells survive
RERF-LC-KJ = tested on: RERF-LC-KJ
Outline: (§1)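 A single step with final 0.05% Triton X-100, 1% formaldehyde and 1 ug/ml Hoechst fixed the cells and stained nuclei 5 days after treatment. Lung cancer cell lines in 1536-well plates had been treated by pin tool the day after seeding with one drug alone or a fixed anchor-drug dose plus five library-drug doses (not always all listed) in √10 steps, and nuclei were counted on 4× images. Relative viability is the ratio of nuclei in treated wells to nuclei in vehicle wells, taken as the median of duplicate plates.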

NCI-H1355 = tested on: NCI-H1355
Outline: as §1

NCI-H1563 = tested on: NCI-H1563
Outline: as §1

NCI-H2228 = tested on: NCI-H2228
Outline: as §1

LK-2 = tested on: LK-2
Outline: as §1

LCLC-97TM1 = tested on: LCLC-97TM1
Outline: as §1

NCI-H1734 = tested on: NCI-H1734
Outline: as §1

NCI-H661 = tested on: NCI-H661
Outline: as §1

PC-14 = tested on: PC-14
Outline: as §1

NCI-H520 = tested on: NCI-H520
Outline: as §1

NCI-H1975 = tested on: NCI-H1975
Outline: as §1

HCC-827 = tested on: HCC-827
Outline: as §1

EKVX = tested on: EKVX
Outline: as §1

PC-3 [JPC-3] = tested on: PC-3 [JPC-3]
Outline: as §1

NCI-H322M = tested on: NCI-H322M
Outline: as §1

HCC-15 = tested on: HCC-15
Outline: as §1

CAL-12T = tested on: CAL-12T
Outline: as §1

NCI-H1650 = tested on: NCI-H1650
Outline: as §1

NCI-H1755 = tested on: NCI-H1755
Outline: as §1

NCI-H2405 = tested on: NCI-H2405
Outline: as §1

H3255 = tested on: H3255
Outline: as §1

## O=c1cc(N2CCOCC2)oc2c(-c3cccc4c3sc3ccccc34)cccc12 + CS(=O)(=O)CCNCc1ccc(-c2ccc3ncnc(Nc4ccc(OCc5cccc(F)c5)c(Cl)c4)c3c2)o1 [Lapatinib] (partner 2 µM)
RERF-LC-KJ; first compound 0.01 µM
  relative viability: 0.701
RERF-LC-KJ; first compound 0.03162 µM
  relative viability: 0.882
RERF-LC-KJ; first compound 0.1 µM
  relative viability: 0.906
RERF-LC-KJ; first compound 0.3162 µM
  relative viability: 0.902
RERF-LC-KJ; first compound 1 µM
  relative viability: 0.795
NCI-H1355; first compound 0.01 µM
  relative viability: 0.998
NCI-H1355; first compound 0.03162 µM
  relative viability: 1
NCI-H1355; first compound 0.3162 µM
  relative viability: 1.03
NCI-H1355; first compound 1 µM
  relative viability: 0.963
NCI-H1563; first compound 0.01 µM
  relative viability: 1.27
NCI-H1563; first compound 0.03162 µM
  relative viability: 0.995
NCI-H1563; first compound 0.1 µM
  relative viability: 1.04
NCI-H1563; first compound 0.3162 µM
  relative viability: 0.762
NCI-H1563; first compound 1 µM
  relative viability: 0.782
NCI-H2228; first compound 0.03162 µM
  relative viability: 0.978
NCI-H2228; first compound 0.1 µM
  relative viability: 1.03
NCI-H2228; first compound 0.3162 µM
  relative viability: 1.23
NCI-H2228; first compound 1 µM
  relative viability: 1.19
LK-2; first compound 0.01 µM
  relative viability: 0.832
LK-2; first compound 0.03162 µM
  relative viability: 0.986
LK-2; first compound 0.1 µM
  relative viability: 1.12
LK-2; first compound 0.3162 µM
  relative viability: 0.909
LK-2; first compound 1 µM
  relative viability: 1.07
LCLC-97TM1; first compound 0.01 µM
  relative viability: 1.09
LCLC-97TM1; first compound 0.03162 µM
  relative viability: 1.57
LCLC-97TM1; first compound 0.3162 µM
  relative viability: 1.13
LCLC-97TM1; first compound 1 µM
  relative viability: 0.727
NCI-H1734; first compound 0.01 µM
  relative viability: 1.12
NCI-H1734; first compound 0.03162 µM
  relative viability: 1.03
NCI-H1734; first compound 0.1 µM
  relative viability: 1.12
NCI-H1734; first compound 0.3162 µM
  relative viability: 1.04
NCI-H1734; first compound 1 µM
  relative viability: 0.927
NCI-H661; first compound 0.01 µM
  relative viability: 0.487
NCI-H661; first compound 0.03162 µM
  relative viability: 0.531
NCI-H661; first compound 0.1 µM
  relative viability: 0.603
NCI-H661; first compound 0.3162 µM
  relative viability: 0.473
NCI-H661; first compound 1 µM
  relative viability: 0.522
PC-14; first compound 0.01 µM
  relative viability: 0.331
PC-14; first compound 0.03162 µM
  relative viability: 0.32
PC-14; first compound 0.1 µM
  relative viability: 0.272
PC-14; first compound 0.3162 µM
  relative viability: 0.308
PC-14; first compound 1 µM
  relative viability: 0.302
NCI-H520; first compound 0.01 µM
  relative viability: 0.781
NCI-H520; first compound 0.03162 µM
  relative viability: 0.825
NCI-H520; first compound 0.1 µM
  relative viability: 0.767
NCI-H520; first compound 0.3162 µM
  relative viability: 0.816
NCI-H520; first compound 1 µM
  relative viability: 0.906
NCI-H1975; first compound 0.01 µM
  relative viability: 0.856
NCI-H1975; first compound 0.03162 µM
  relative viability: 0.84
NCI-H1975; first compound 0.1 µM
  relative viability: 0.848
NCI-H1975; first compound 0.3162 µM
  relative viability: 0.849
NCI-H1975; first compound 1 µM
  relative viability: 0.826
HCC-827; first compound 0.01 µM
  relative viability: 0.222
HCC-827; first compound 0.03162 µM
  relative viability: 0.213
HCC-827; first compound 0.1 µM
  relative viability: 0.215
HCC-827; first compound 0.3162 µM
  relative viability: 0.186
HCC-827; first compound 1 µM
  relative viability: 0.256
EKVX; first compound 0.01 µM
  relative viability: 0.218
EKVX; first compound 0.03162 µM
  relative viability: 0.216
EKVX; first compound 0.1 µM
  relative viability: 0.196
EKVX; first compound 0.3162 µM
  relative viability: 0.202
EKVX; first compound 1 µM
  relative viability: 0.219
PC-3 [JPC-3]; first compound 0.01 µM
  relative viability: 0.492
PC-3 [JPC-3]; first compound 0.03162 µM
  relative viability: 0.435
PC-3 [JPC-3]; first compound 0.1 µM
  relative viability: 0.462
PC-3 [JPC-3]; first compound 0.3162 µM
  relative viability: 0.421
PC-3 [JPC-3]; first compound 1 µM
  relative viability: 0.423
NCI-H322M; first compound 0.01 µM
  relative viability: 0.584
NCI-H322M; first compound 0.03162 µM
  relative viability: 0.6
NCI-H322M; first compound 0.3162 µM
  relative viability: 0.577
NCI-H322M; first compound 1 µM
  relative viability: 0.455
HCC-15; first compound 0.01 µM
  relative viability: 0.823
HCC-15; first compound 0.03162 µM
  relative viability: 0.881
HCC-15; first compound 0.1 µM
  relative viability: 0.999
HCC-15; first compound 0.3162 µM
  relative viability: 0.871
HCC-15; first compound 1 µM
  relative viability: 0.86
CAL-12T; first compound 0.01 µM
  relative viability: 0.707
CAL-12T; first compound 0.1 µM
  relative viability: 0.662
CAL-12T; first compound 0.3162 µM
  relative viability: 0.671
CAL-12T; first compound 1 µM
  relative viability: 0.691
NCI-H1650; first compound 0.03162 µM
  relative viability: 0.831
NCI-H1650; first compound 0.1 µM
  relative viability: 0.775
NCI-H1650; first compound 0.3162 µM
  relative viability: 0.756
NCI-H1650; first compound 1 µM
  relative viability: 0.75
NCI-H1755; first compound 0.01 µM
  relative viability: 0.81
NCI-H1755; first compound 0.03162 µM
  relative viability: 1.02
NCI-H1755; first compound 0.1 µM
  relative viability: 1.02
NCI-H1755; first compound 0.3162 µM
  relative viability: 1.04
NCI-H1755; first compound 1 µM
  relative viability: 1.07
NCI-H2405; first compound 0.01 µM
  relative viability: 1.12
NCI-H2405; first compound 0.03162 µM
  relative viability: 1.18
NCI-H2405; first compound 0.1 µM
  relative viability: 1.04
NCI-H2405; first compound 0.3162 µM
  relative viability: 1.2
NCI-H2405; first compound 1 µM
  relative viability: 1.11
H3255; first compound 0.01 µM
  relative viability: 0.222
H3255; first compound 0.03162 µM
  relative viability: 0.286
H3255; first compound 0.1 µM
  relative viability: 0.258
H3255; first compound 0.3162 µM
  relative viability: 0.225
H3255; first compound 1 µM
  relative viability: 0.248
